According to US11413297B2, “Therapies for treating and preventing chronic rhinosinusitis” (Avanti Polar Lipids, LLC, priority 2017, dated 2022):
“Also recorded” adds a separate entry of the source.

Columns and labels:
Assay type in all cases: cell-based
[1] = test system: MRSA; assay: Inhibition of growth of planktonic MRSA, OD600 (Example 10); settings: in combination with gentamicin, compared to gentamicin alone; 6 h; phospholipid 256, 512, 1024 μg/ml
Experimental: (§1) We performed in vitro studies of the capacity of phospholipids together with antibiotics to inhibit the growth of planktonic bacteria. The tests were conducted as follows. Freshly grown MRSA was quantitated and placed in 96-well plates together with gentamicin alone, phospholipids plus gentamicin, or control solutions. Two different phospholipids (MAPCHO-10 and MAPCHO-12) were tested at three different phospholipid test concentrations (256 μg/ml, 512 μg/ml, and 1024 μg/ml). After 24 hours at 37 degrees C., media was removed and fresh medium was added and the 96-well plates were incubated at 37 degrees C. for 6 hours. Bacterial density was then analyzed and measured at OD600.

[2] = test system: S. aureus; assay: Inhibition of growth of planktonic S. aureus, OD600 (Example 8); settings: in combination with gentamicin, compared to gentamicin alone; 6 h; phospholipid 256, 512, 1024 μg/ml
Experimental: as §1, with “S. aureus” for “MRSA”

[3] = test system: S. aureus biofilm formation; assay: Prevention of S. aureus biofilm formation at 6 h, crystal violet (Example 9); settings: in combination with gentamicin, phospholipid 256, 512, 1024 μg/ml
Experimental: We performed in vitro tests of the capacity of phospholipids together with antibiotics to prevent formation of biofilms. Freshly grown S. aureus was quantitated and placed in 96-well plates together with gentamicin alone, phospholipids plus gentamicin, or control solutions. Two different phospholipids ([…]-10 and […]-12) were tested at three different phospholipid test concentrations (256 μg/ml, 512 μg/ml, and 1024 μg/ml). After 6 hours at 37 degrees C., the fluids were removed and the wells stained with crystal violet, and then the density of crystal violet in the wells was quantitated.

[4] = test system: S. aureus (ATCC BAA-1720) biofilm formation; assay: Prevention of S. aureus biofilm formation, crystal violet at 540 nm (Example 2); settings: 24 hours
Experimental: (§2) We also performed in vitro tests of the capacity of phospholipids together with antibiotics to prevent formation of biofilms. Freshly grown S. aureus and P. aeruginosa were quantitated and placed in 96-well plates together with phospholipids plus gentamicin and tobramycin (antibiotics), phospholipids alone, antibiotics alone or controls solution. After 24 hours at 37 degrees C., the fluids were removed and the wells stained with crystal violet, and then the density of crystal violet in the wells was quantitated by absorption of light at 540 nm.

[5] = test system: preformed P. aeruginosa biofilms; assay: Disruption of preformed P. aeruginosa biofilms, crystal violet (Example 3); settings: for disruption of preformed P. aeruginosa biofilms: 6 h time point; for eradication of preformed P. aeruginosa biofilms: 24 h time point, FIGS. 5A-5C
Experimental: We performed in vitro studies of the capacity of phospholipids together with antibiotics to disrupt preformed bacterial biofilms. The tests were conducted as follows. Biofilm formation was obtained by culturing P. aeruginosa in cation-adjusted Mueller Hinton Broth after incubation at 37 degrees C. for 24 hours in 96 well plates. The medium was then removed and replaced by treatment solutions of gentamicin, phospholipids plus gentamicin, or control solutions. Either three or four different phospholipids (MAPCHO-10, MAPCHO-12, MAPCHO-14, and MAPCHO-16) were tested at three different phospholipid test concentrations (512 μg/ml, 1024 μg/ml, and 2048 μg/ml). After 24 hours at 37 degrees C., media was removed and fresh medium was added and the 96-well plates were incubated at 37 degrees C. for either 6 hours or 24 hours. Media were then removed and biofilm at the base of the wells was stained with crystal violet and quantitated.

[6] = test system: P. aeruginosa in preformed biofilm; assay: Bacterial density of P. aeruginosa in preformed biofilm, OD600 (Example 7); settings: in combination with gentamicin; 6 h; phospholipid 512, 1024, 2048 μg/ml; FIGS. 10A-10D
Experimental: We performed in vitro studies of the capacity of phospholipids together with antibiotics to eradicate preformed bacterial biofilms. The tests were conducted as follows. Biofilm formation was obtained by culturing P. aeruginosa in cation-adjusted Mueller Hinton Broth after incubation at 37 degrees C. for 24 hours in 96 well plates. The medium was then removed and replaced by treatment solutions of gentamicin, phospholipids plus gentamicin, or control solutions. Four different phospholipids (MAPCHO-10, MAPCHO-12, MAPCHO-14, and MAPCHO-16) were tested at three different phospholipid test concentrations (512 μg/ml, 1024 μg/ml, and 2048 μg/ml). After 24 hours at 37 degrees C., media was removed and fresh medium was added and the 96-well plates were incubated at 37 degrees C. for 6 hours. Bacterial density was then analyzed and measured at OD600.

[7] = test system: P. aeruginosa; assay: Inhibition of growth of planktonic P. aeruginosa, OD600 (Example 4); settings: in combination with gentamicin, compared to gentamicin alone
Experimental: We performed in vitro studies of the capacity of phospholipids together with antibiotics to inhibit the growth of planktonic bacteria. The tests were conducted as follows. Freshly grown P. aeruginosa was quantitated and placed in 96-well plates together with gentamicin alone, phospholipids plus gentamicin, or control solutions. Four different phospholipids (MAPCHO-10, MAPCHO-12, MAPCHO-14, and MAPCHO-16) were tested at two different phospholipid test concentrations (1024 μg/ml and 2048 μg/ml). After 24 hours at 37 degrees C., media was removed and fresh medium was added and the 96-well plates were incubated at 37 degrees C. for either 6 hours or 24 hours. Bacterial density was then analyzed and measured at OD600.

[8] = test system: P. aeruginosa biofilm formation; assay: Prevention of P. aeruginosa biofilm formation, crystal violet (Example 5); settings: 24 h
Experimental: We performed in vitro tests of the capacity of phospholipids together with antibiotics to prevent formation of biofilms. Freshly grown P. aeruginosa was quantitated and placed in 96-well plates together with gentamicin alone, phospholipids plus gentamicin, or control solutions. Four different phospholipids (MAPCHO-10, MAPCHO-12, MAPCHO-14, and MAPCHO-16) were tested at two different phospholipid test concentrations (1024 μg/ml and 2048 μg/ml). After 24 hours at 37 degrees C., the fluids were removed and the wells stained with crystal violet, and then the density of crystal violet in the wells was quantitated.

[9] = test system: MRSA biofilm formation; assay: Prevention of MRSA biofilm formation at 6 h, crystal violet (Example 11); settings: in combination with gentamicin, phospholipid 512 μg/ml and 1024 μg/ml
Experimental: We performed in vitro tests of the capacity of phospholipids together with antibiotics to prevent formation of biofilms. Freshly grown MRSA was quantitated and placed in 96-well plates together with gentamicin alone, phospholipids plus gentamicin, or control solutions. Two different phospholipids (MAPCHO-10 and MAPCHO-12) were tested at three different phospholipid test concentrations (256 μg/ml, 512 μg/ml, and 1024 μg/ml). After 6 hours at 37 degrees C., the fluids were removed and the wells stained with crystal violet, and then the density of crystal violet in the wells was quantitated.

[10] = test system: S. aureus (NCTC 8325) biofilm formation; assay: Prevention of S. aureus (NCTC 8325) biofilm formation, crystal violet at 540 nm (Example 12); settings: 24 hours; for prevention of biofilm formation by S. aureus (NCTC 8325): agent alone (antibiotic alone at low concentrations, or phospholipid alone)
Experimental: as §2, with “(NCTC 8325)” for “and P. aeruginosa”, “(antibiotics) or” for “(antibiotics), phospholipids alone,”, “alone.” for “alone or controls solution.”

[11] = test system: preformed S. aureus (ATCC BAA-1720) biofilms; assay: Disruption of preformed S. aureus biofilm, crystal violet staining (Example 1)
Experimental: We performed in vitro studies of the capacity of phospholipids together with antibiotics to disrupt preformed bacterial biofilms. The tests were conducted as follows. Biofilm formation was obtained by culturing (1) S. aureus in tryptic soy broth media supplemented with 5% glucose; and (2) P. aeruginosa in cation-adjusted Mueller Hinton Broth after incubation at 37 degrees C. for 24 hours in 96 well plates. The medium was then removed and replaced by treatment solutions of antibiotics, antibiotics+phospholipids, phospholipids alone, or control solutions. Phospholipid concentration used in the assays was 512 μg/ml although in some studies, was […]. After 24 hours at 37 degrees C., media was removed and fresh medium was added and the 96-well plates incubated at 37 degrees C. for 24 hours. Media were then removed and biofilm at the base of the wells was stained with crystal violet and quantitated.

[12] = test system: P. aeruginosa; assay: Prevention of P. aeruginosa bacterial growth, OD600 after 24 h (Example 6); settings: in combination with gentamicin, phospholipid 512, 1024, 2048 μg/ml, FIGS. 9A-9C
Experimental: We performed in vitro studies of the capacity of phospholipids together with antibiotics to prevent bacterial growth. Freshly grown P. aeruginosa was quantitated and placed in 96-well plates together with gentamicin alone, phospholipids plus gentamicin, or control solutions. Three different phospholipids (MAPCHO-12, MAPCHO-14, and MAPCHO-16) were tested at three different phospholipid test concentrations (512 μg/ml, 1024 μg/ml, and 2048 μg/ml). After 24 hours at 37 degrees C., bacterial density was then analyzed and measured at OD600.

[13] = agent alone (gentamicin alone at low concentrations, or phospholipid alone)
[14] = in combination with gentamicin, phospholipid 512, 1024 and 2048 μg/ml, FIGS. 4B-4D
[15] = in combination with gentamicin, phospholipid 512, 1024 and 2048 μg/ml
[16] = 6 h time point, phospholipid 1024 and 2048 μg/ml
[17] = in combination with gentamicin, phospholipid 1024 or 2048 μg/ml, FIGS. 8B, 8C
[18] = agent alone (gentamicin alone or phospholipid alone)

Compound | inhibition of MRSA growth [1] | inhibition of S. aureus growth [2] | prevention of S. aureus biofilm formation compared to gentamicin alone [3] | prevention of biofilm formation by S. aureus [4, 13] | disruption of preformed P. aeruginosa biofilms [5, 14] | eradication of preformed P. aeruginosa biofilms [5, 15] | inhibition of P. aeruginosa bacterial growth in preformed biofilm relative to gentamicin alone [6] | inhibition of P. aeruginosa growth [7, 16] | prevention of P. aeruginosa biofilm formation [8, 17] | prevention of biofilm formation by S. aureus (NCTC 8325) [10] | disruption of preformed biofilm of S. aureus [11, 18] | inhibition of P. aeruginosa bacterial growth relative to gentamicin alone [12] | also measured
CCCCCCCCCCOP(=O)([O-])OCC[N+](C)(C)C [MAPCHO-10, N-decylphosphocholine] | moderate inhibition | moderate inhibition | more effective | – | – | – | – | – | – | – | – | – | –
CCCCCCCCCCCCOP(=O)([O-])OCC[N+](C)(C)C [MAPCHO-12, N-dodecylphosphocholine] | strong inhibition | strong inhibition | more effective | did not prevent biofilm formation | disruption of P. aeruginosa biofilms occurs | nearly complete eradication | more effective | moderate inhibition | effective at preventing | did not prevent biofilm formation | did not disrupt the biofilm | – | prevention of biofilm formation by S. aureus ([4]; phospholipid combined with gentamicin at low concentrations, FIG. 3): did prevent biofilm formation; inhibition of P. aeruginosa growth ([7]; 24 h time point, highest phospholipid dose 2048 μg/ml): significant inhibition; prevention of MRSA biofilm formation compared to gentamicin alone [9]: tends to be more effective; effect on formation of biofilm by S. aureus (NCTC 8325) ([10]; 512 μg dose of phospholipid in combination with gentamicin, FIGS. 15, 16): positive effects; also recorded: able to prevent biofilm formation; effect on formation of biofilm by S. aureus (NCTC 8325) ([10]; 512 μg dose of phospholipid in combination with tobramycin, FIGS. 15, 17): positive effects; also recorded: able to prevent biofilm formation; disruption of preformed biofilm of S. aureus ([11]; phospholipid together with gentamicin, FIG. 2): disrupt preformed biofilm; sterilization of S. aureus on disruption of the biofilm ([11]; phospholipid/gentamicin combination): sterilized
CCCCCCCCCCCCCCOP(=O)([O-])OCC[N+](C)(C)C [MAPCHO-14, N-tetradecylphosphocholine] | – | – | – | – | disruption of P. aeruginosa biofilms occurs | nearly complete eradication | more effective | moderate inhibition | effective at preventing | – | – | more effective | inhibition of P. aeruginosa growth ([7]; 24 h time point, phospholipid 1024 and 2048 μg/ml): significant inhibition
CCCCCCCCCCCCCCCCOP(=O)([O-])OCC[N+](C)(C)C [MAPCHO-16] | – | – | – | – | disruption of P. aeruginosa biofilms occurs | nearly complete eradication | more effective | – | effective at preventing | – | – | more effective | –
NC[C@H]1O[C@H](O[C@H]2[C@H](O)[C@@H](O[C@H]3O[C@H](CO)[C@@H](O)[C@H](N)[C@H]3O)[C@H](N)C[C@@H]2N)[C@H](N)C[C@@H]1O [tobramycin, reference compound] | – | – | – | – | – | – | – | – | – | did not prevent the formation of the biofilm | – | – | –
gentamicin [reference compound] | – | – | – | does not prevent the formation of the biofilm | – | – | – | – | – | did not prevent the formation of the biofilm | not successful | – | disruption of preformed P. aeruginosa biofilms ([5]; gentamicin alone, FIG. 4A): did not induce biofilm disruption; prevention of P. aeruginosa biofilm formation ([8]; gentamicin alone, FIG. 8A): unable to prevent
